The target of assay [1] is T1, c-Met (cytoplasmic domain) (Homo sapiens, UniProt P08581).
T1 construct: Reactions were initiated with 30 ng/mL c-Met (cytoplasmic domain, Invitrogen Corporation #PV3143); purchased Invitrogen Corporation PV3143
Put plainly: c-Met Kinase Assay (ELISA/TRF, PLC-γ substrate). It is filed as biochemical. To be noted: 3 μM ATP (Km level); read-out: c-Met Kinase Inhibition (IC50). The method, then: Example compounds were tested for their ability to inhibit the kinase activity of baculovirus-expressed ALK using a modification of the ELISA protocol reported for trkA in Angeles, T. S. et al., Anal. Biochem. 1996, 236, 49-55, which is incorporated herein by reference in its entirety. Phosphorylation of the substrate, phospholipase C-gamma (PLC-γ) generated as a fusion protein with glutathione S-transferase (GST) as reported in Rotin, D. et al., EMBO J. 1992, 11, 559-567, which is incorporated herein by reference in its entirety, was detected with a europium-labeled anti-phosphotyrosine antibody and measured by time-resolved fluorescence (TRF). Briefly, each 96-well plate was coated with 100 μL/well of 10 μg/mL substrate (phospholipase C-γ) in Tris-buffered saline (TBS). […] The reaction was initiated by adding enzyme (30 ng/ml ALK) and was allowed to proceed at 37° C. for 15 minutes. Detection of the phosphorylated product was performed by adding 100 μl/well of Eu-N1 labeled PT66 antibody (Perkin Elmer # AD0041). Incubation at 37° C. then proceeded for one (1) hour, followed by addition of 100 μL enhancement solution (Wallac #1244-105). The plate was gently agitated and after thirty minutes, the fluorescence of the resulting solution was measured using the EnVision 2100 (or 2102) multilabel plate reader (Perkin Elmer).
Data analysis was performed using ActivityBase (IDBS, Guilford, UK). IC50 values were calculated by plotting percent inhibition versus log10 of the concentration of compound and fitting to the nonlinear regression sigmoidal dose-response (variable slope) equation in XLFit (IDBS, Guilford, UK).
Reactions were initiated with 30 ng/mL c-Met (cytoplasmic domain, Invitrogen Corporation #PV3143).

Assay [2] has as its target baculovirus-expressed ALK (Homo sapiens, UniProt Q9UM73). Put plainly: ALK Kinase Assay (ELISA/TRF, PLC-γ substrate). Also: 1 µM ATP (Km level). Type of assay: biochemical. To be noted: read-out: ALK Kinase Inhibition (IC50). Put shortly:
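IC50 values fitted by nonlinear sigmoidal regression (variable slope) of percent inhibition against log compound concentration. Read-out was TRF of Eu-N1 anti-phosphotyrosine antibody bound to phosphorylated, plate-coated GST-PLC-γ (10 µg/mL). Kinase reaction used ALK at 30 ng/ml for 15 min at 37 °C.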

SMILES strings stand for the structures. pIC50: −log10 of the molar value. Counter-ions that a name gives are not always drawn.

Chain of baculovirus-expressed ALK (Q9UM73 19-1620): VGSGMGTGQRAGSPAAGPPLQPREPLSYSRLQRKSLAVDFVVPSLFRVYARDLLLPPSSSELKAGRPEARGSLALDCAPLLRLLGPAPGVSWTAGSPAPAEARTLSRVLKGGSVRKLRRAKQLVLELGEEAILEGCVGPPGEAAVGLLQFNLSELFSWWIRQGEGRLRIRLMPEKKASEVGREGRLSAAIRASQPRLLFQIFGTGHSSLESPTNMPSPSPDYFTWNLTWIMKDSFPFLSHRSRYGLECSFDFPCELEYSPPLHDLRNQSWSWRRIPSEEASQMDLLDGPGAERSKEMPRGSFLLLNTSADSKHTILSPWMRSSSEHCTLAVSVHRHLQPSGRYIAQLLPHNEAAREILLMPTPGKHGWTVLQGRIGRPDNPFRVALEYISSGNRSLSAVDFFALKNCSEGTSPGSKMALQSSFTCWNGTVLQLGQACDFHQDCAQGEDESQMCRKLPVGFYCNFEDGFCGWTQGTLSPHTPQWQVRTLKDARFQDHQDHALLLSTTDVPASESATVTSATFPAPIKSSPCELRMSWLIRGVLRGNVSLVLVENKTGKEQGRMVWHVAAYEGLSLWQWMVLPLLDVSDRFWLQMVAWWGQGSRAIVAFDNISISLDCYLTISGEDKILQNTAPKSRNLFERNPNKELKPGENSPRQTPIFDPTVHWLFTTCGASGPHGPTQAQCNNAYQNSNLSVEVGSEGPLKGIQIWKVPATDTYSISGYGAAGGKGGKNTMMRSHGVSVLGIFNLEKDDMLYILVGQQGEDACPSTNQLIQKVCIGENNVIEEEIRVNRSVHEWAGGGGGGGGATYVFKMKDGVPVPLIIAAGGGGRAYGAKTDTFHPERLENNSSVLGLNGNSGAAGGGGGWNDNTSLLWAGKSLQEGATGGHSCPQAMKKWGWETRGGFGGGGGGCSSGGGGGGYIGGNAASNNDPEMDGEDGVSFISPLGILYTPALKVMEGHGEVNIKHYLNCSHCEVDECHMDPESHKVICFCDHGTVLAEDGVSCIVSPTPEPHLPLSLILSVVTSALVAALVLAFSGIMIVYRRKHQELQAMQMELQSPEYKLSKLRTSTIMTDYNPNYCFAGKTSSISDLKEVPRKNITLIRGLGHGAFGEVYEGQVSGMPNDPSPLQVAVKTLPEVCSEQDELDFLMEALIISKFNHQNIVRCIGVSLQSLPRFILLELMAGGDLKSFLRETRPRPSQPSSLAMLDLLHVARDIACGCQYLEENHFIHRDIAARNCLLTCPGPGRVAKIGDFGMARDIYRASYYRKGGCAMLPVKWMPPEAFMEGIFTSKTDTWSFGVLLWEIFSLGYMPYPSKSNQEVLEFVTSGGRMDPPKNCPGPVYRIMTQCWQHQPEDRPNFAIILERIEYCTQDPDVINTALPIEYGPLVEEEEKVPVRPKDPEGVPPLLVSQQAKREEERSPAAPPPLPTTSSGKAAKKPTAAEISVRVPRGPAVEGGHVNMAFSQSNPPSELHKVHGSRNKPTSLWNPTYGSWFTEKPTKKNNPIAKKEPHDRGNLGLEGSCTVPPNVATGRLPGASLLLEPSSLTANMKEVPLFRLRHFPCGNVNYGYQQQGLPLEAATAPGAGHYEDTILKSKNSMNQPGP
T1 sequence (P08581 956-1390 limits assumed): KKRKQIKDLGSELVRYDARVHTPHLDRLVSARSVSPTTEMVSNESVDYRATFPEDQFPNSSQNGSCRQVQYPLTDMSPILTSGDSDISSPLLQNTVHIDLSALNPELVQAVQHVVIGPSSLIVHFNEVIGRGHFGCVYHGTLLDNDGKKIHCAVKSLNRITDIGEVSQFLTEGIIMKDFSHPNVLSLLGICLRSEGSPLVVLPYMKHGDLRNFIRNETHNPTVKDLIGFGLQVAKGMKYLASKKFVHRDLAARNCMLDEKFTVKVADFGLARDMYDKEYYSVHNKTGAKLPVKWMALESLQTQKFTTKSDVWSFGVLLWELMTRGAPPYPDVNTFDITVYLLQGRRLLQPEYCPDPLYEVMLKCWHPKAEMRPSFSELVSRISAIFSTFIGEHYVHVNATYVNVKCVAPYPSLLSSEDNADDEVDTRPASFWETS

On to `O=C1CNc2ncc(-c3cccnc3)cc2N1Cc1c(F)ccc(F)c1Cl` [Example 4, 1-(2-Chloro-3,6-difluorobenzyl)-7-pyridin-3-yl-3,4-dihydro-1H-pyrido[2,3-b]pyrazin-2-one, trifluoroacetic acid salt], for which the pIC50 in assay [1] was 4.00 to 5.00; in assay [2] it was 5.00 to 6.00.
On the same counts, the results for `CN1CCN(C(=O)c2ccc(-c3cnc4c(c3)N(Cc3c(F)ccc(F)c3Cl)C(=O)CN4)cc2)CC1` [Example 7, 1-(2-Chloro-3,6-difluorobenzyl)-7-[4-(4-methylpiperazine-1-carbonyl)phenyl]-3,4-dihydro-1H-pyrido[2,3-b]pyrazin-2-one] are 4.00 to 5.00 and 5.00 to 6.00.
On the same counts, the results for `O=C(NCCN1CCCC1)c1ccc(-c2cnc3c(c2)N(Cc2ccccc2)C(=O)CN3)cc1` [Example 12, 4-(1-Benzyl-2-oxo-1,2,3,4-tetrahydropyrido[2,3-b]pyrazin-7-yl)-N-(2-pyrrolidin-1-yl-ethyl)benzamide, trifluoroacetic acid salt] are 4.00 to 5.00 and 5.00 to 6.00.
On the same counts, the results for `O=C1CNc2ncc(-c3ccc(C(=O)N4CCC[C@H]4CN4CCCC4)cc3)cc2N1Cc1ccccc1` [Example 13, S-1-Benzyl-7-[4-(2-[(pyrrolidin-1-yl)methyl]pyrrolidine-1-carbonyl)phenyl]-3,4-dihydro-1H-pyrido[2,3-b]pyrazin-2-one, trifluoroacetic acid salt] are less than 4.00 and 4.00 to 5.00.
Consider `O=C(NCCCN1CCOCC1)c1ccc(-c2cnc3c(c2)N(Cc2ccccc2)C(=O)CN3)cc1` [Example 14, 4-(1-Benzyl-2-oxo-1,2,3,4-tetrahydropyrido[2,3-b]pyrazin-7-yl)-N-(3-morpholin-4-yl-propyl)benzamide, trifluoroacetic acid salt], for which the results for the pIC50 in assay [1] and in assay [2] were less than 4.00 and 4.00 to 5.00, respectively.
Regarding `CN(C)CCCCNC(=O)c1ccc(-c2cnc3c(c2)N(Cc2ccccc2)C(=O)CN3)cc1` [Example 15, 4-(1-Benzyl-2-oxo-1,2,3,4-tetrahydropyrido[2,3-b]pyrazin-7-yl)-N-(4-dimethylaminobutyl)benzamide, trifluoroacetic acid salt], the pIC50 in assay [1] is 4.00 to 5.00; in assay [2], 5.00 to 6.00.
For the molecule `O=C(c1ccc(-c2cnc3ncc(=O)n(Cc4ccccc4)c3c2)cc1)N1CCC(N2CCCC2)CC1` [Example 17, 1-Benzyl-7-[4-(4-(pyrrolidin-1-yl)piperidine-1-carbonyl)phenyl]-1H-pyrido[2,3-b]pyrazin-2-one, trifluoroacetic acid salt], the pIC50 in assay [1] and in assay [2] was 4.00 to 5.00 in each case.
As for `COc1ccc(CNC(=O)c2ccc(-c3cnc4c(c3)N(Cc3cc(Cl)ccc3C(F)(F)F)CCN4)cc2)cc1` [Example 419, 4-{1-[5-Chloro-2-(trifluoromethyl)benzyl]-1,2,3,4-tetrahydropyrido[2,3-b]pyrazin-7-yl}-N-(4-methoxybenzyl)benzamide], in assay [2], the pIC50 is 6.00 to 7.00.
For the molecule `O=C(NCCOc1ccccc1)c1ccc(-c2cnc3c(c2)N(Cc2cc(Cl)ccc2C(F)(F)F)CCN3)cc1` [Example 420, 4-{1-[5-Chloro-2-(trifluoromethyl)benzyl]-1,2,3,4-tetrahydropyrido[2,3-b]pyrazin-7-yl}-N-(2-phenoxyethyl)benzamide], the pIC50 in assay [2] is 6.00 to 7.00.
Still for that read-out and setting: for `O=C(NCc1ccccc1)c1ccc(-c2cnc3c(c2)N(Cc2cc(Cl)ccc2C(F)(F)F)CCN3)cc1` [Example 421, N-Benzyl-4-{1-[5-chloro-2-(trifluoromethyl)benzyl]-1,2,3,4-tetrahydropyrido[2,3-b]pyrazin-7-yl}benzamide] the value was 6.00 to 7.00.
Same read-out and setting: the figure for `O=C(c1ccc(-c2cnc3c(c2)N(Cc2cc(Cl)ccc2C(F)(F)F)CCN3)cc1)N1CCN(c2cccc(Cl)c2)CC1` [Example 422, [4-(3-Chlorophenyl)piperazin-1-yl]-(4-{1-[5-chloro-2-(trifluoromethyl)benzyl]-1,2,3,4-tetrahydropyrido[2,3-b]pyrazin-7-yl}phenyl)methanone] is 6.00 to 7.00; for `O=C(NC1Cc2ccccc2C1)c1ccc(-c2cnc3c(c2)N(Cc2cc(Cl)ccc2C(F)(F)F)CCN3)cc1` [Example 423, 4-{1-[5-Chloro-2-(trifluoromethyl)benzyl]-1,2,3,4-tetrahydropyrido[2,3-b]pyrazin-7-yl}-N-indan-2-ylbenzamide] it is 6.00 to 7.00; for `O=C(c1ccc(-c2cnc3c(c2)N(Cc2cc(Cl)ccc2C(F)(F)F)CCN3)cc1)N1CCN(CCc2ccccc2)CC1` [Example 424, (4-{1-[5-Chloro-2-(trifluoromethyl)benzyl]-1,2,3,4-tetrahydropyrido[2,3-b]pyrazin-7-yl}phenyl)-(4-phenethylpiperazin-1-yl)methanone] it is 6.00 to 7.00.
On the same count and under the same terms, the figure for `O=C(NCc1ccc(-c2ccccc2)cc1)c1ccc(-c2cnc3c(c2)N(Cc2cc(Cl)ccc2C(F)(F)F)CCN3)cc1` [Example 425, N-Biphenyl-4-ylmethyl-4-{1-[5-Chloro-2-(trifluoromethyl)benzyl]-1,2,3,4-tetrahydropyrido[2,3-b]pyrazin-7-yl}benzamide] is 5.00 to 6.00; for `O=C(c1ccc(-c2cnc3c(c2)N(Cc2cc(Cl)ccc2C(F)(F)F)CCN3)cc1)N1CCN(c2ccccc2Cl)CC1` [Example 426, [4-(2-Chlorophenyl)piperazin-1-yl]-(4-{1-[5-chloro-2-(trifluoromethyl)benzyl]-1,2,3,4-tetrahydropyrido[2,3-b]pyrazin-7-yl}phenyl)methanone] it is 6.00 to 7.00.
With `O=C(NC1CCN(Cc2ccccc2)C1)c1ccc(-c2cnc3c(c2)N(Cc2cc(Cl)ccc2C(F)(F)F)CCN3)cc1` (stereo not drawn) [Example 427, N-(1-Benzylpyrrolidin-3-yl)-4-{1-[5-chloro-2-(trifluoromethyl)benzyl]-1,2,3,4-tetrahydropyrido[2,3-b]pyrazin-7-yl}benzamide], in assay [2], the pIC50 is 6.00 to 7.00.
The same measure, in the same setting: the figure for `O=C(c1ccc(-c2cnc3c(c2)N(Cc2cc(Cl)ccc2C(F)(F)F)CCN3)cc1)N1CCN(CC2CCCCC2)CC1` [Example 428, (4-{1-[5-Chloro-2-(trifluoromethyl)benzyl]-1,2,3,4-tetrahydropyrido[2,3-b]pyrazin-7-yl}phenyl)-[4-(cyclohexylmethyl)piperazin-1-yl]methanone] is 5.00 to 6.00.
On the same count and under the same terms, for `NS(=O)(=O)c1ccc(CNC(=O)c2ccc(-c3cnc4c(c3)N(Cc3cc(Cl)ccc3C(F)(F)F)CCN4)cc2)cc1` [Example 429, 4-{1-[5-Chloro-2-(trifluoromethyl)benzyl]-1,2,3,4-tetrahydropyrido[2,3-b]pyrazin-7-yl}-N-(4-sulfamoylbenzyl)benzamide] the value was 6.00 to 7.00; for `O=C(c1ccc(-c2cnc3c(c2)N(Cc2cc(Cl)ccc2C(F)(F)F)CCN3)cc1)N1CCC[C@H]1CN1CCCC1` [Example 430, (4-{1-[5-Chloro-2-(trifluoromethyl)benzyl]-1,2,3,4-tetrahydropyrido[2,3-b]pyrazin-7-yl}phenyl)-((S)-2-pyrrolidin-1-ylmethylpyrrolidin-1-yl)methanone], greater than 7.00; for `O=C(c1ccc(-c2cnc3c(c2)N(Cc2cc(Cl)ccc2C(F)(F)F)CCN3)cc1)N1CCCC1c1cccnc1` (stereo not drawn) [Example 431, (4-{1-[5-Chloro-2-(trifluoromethyl)benzyl]-1,2,3,4-tetrahydropyrido[2,3-b]pyrazin-7-yl}phenyl)-(2-pyridin-3-yl-pyrrolidin-1-yl)methanone], 6.00 to 7.00.
Same read-out and setting: the figure for `COc1ccccc1CN(C)C(=O)c1ccc(-c2cnc3c(c2)N(Cc2cc(Cl)ccc2C(F)(F)F)CCN3)cc1` [Example 432, 4-{1-[5-Chloro-2-(trifluoromethyl)benzyl]-1,2,3,4-tetrahydropyrido[2,3-b]pyrazin-7-yl}-N-(2-methoxybenzyl)-N-methylbenzamide] is 6.00 to 7.00; for `O=C(c1ccc(-c2cnc3c(c2)N(Cc2cc(Cl)ccc2C(F)(F)F)CCN3)cc1)N1Cc2ccccc2C1` [Example 433, (4-{1-[5-Chloro-2-(trifluoromethyl)benzyl]-1,2,3,4-tetrahydropyrido[2,3-b]pyrazin-7-yl}phenyl)-(1,3-dihydroisoindol-2-yl)methanone] it is 6.00 to 7.00; for `O=C(c1ccc(-c2cnc3c(c2)N(Cc2cc(Cl)ccc2C(F)(F)F)CCN3)cc1)N1CCC2(CC1)OCc1ccccc12` [Example 434, {4-[1-(5-Chloro-2-trifluoromethyl-benzyl)-1,2,3,4-tetrahydropyrido[2,3-b]pyrazin-7-yl]-phenyl}-(spiro[isobenzofuran-1(3H), 4′-piperidine]-1-yl)methanone] it is 6.00 to 7.00.

The values are drawn from US7601716B2, “Pyridopyrazines and derivatives thereof as ALK and c-Met inhibitors” (Cephalon, Inc., priority 2006, dated 2009).
